Measurements from patent US8933230B2, “Phosphorus-containing group-substituted quinoline, its preparation process, medical composition containing the compounds and application” (priority 2011, dated 2015).

Columns and labels:
Assay in all cases: KinomeScan kinase panel
Format in all cases: binding
[1] = molecular target: T1, ABL1(H396P)-phosphorylated (Homo sapiens, UniProt P00519, H396P)
T1 construct: purchased DiscoveRx Corporation (KinomeScan)
How it was run: (§1)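 Inhibitory effect at a 1000 nM single dose, determined in KinomeScan's 442-kinase panel.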

[2] = molecular target: T2, ABL1(Y253F)-phosphorylated (Homo sapiens, UniProt P00519, Y253F)
T2 construct: purchased DiscoveRx Corporation (KinomeScan)
How it was run: as §1

ABL1-phosphorylated = molecular target: T3, ABL1-phosphorylated (Homo sapiens, UniProt P00519)
T3 construct: purchased DiscoveRx Corporation (KinomeScan)
How it was run: as §1

ASK1 = molecular target: T4, ASK1 (Homo sapiens, UniProt Q99683)
T4 construct: purchased DiscoveRx Corporation (KinomeScan)
How it was run: as §1

BRAF(V600E) = molecular target: T5, BRAF(V600E) (Homo sapiens, UniProt P15056, V600E)
T5 construct: purchased DiscoveRx Corporation (KinomeScan)
How it was run: as §1

CASK = molecular target: T6, CASK (Homo sapiens, UniProt O14936)
T6 construct: purchased DiscoveRx Corporation (KinomeScan)
How it was run: as §1

CSNK1G1 = molecular target: T7, CSNK1G1 (Homo sapiens, UniProt Q9HCP0)
T7 construct: purchased DiscoveRx Corporation (KinomeScan)
How it was run: as §1

DAPK2 = molecular target: T8, DAPK2 (Homo sapiens, UniProt Q9UIK4)
T8 construct: purchased DiscoveRx Corporation (KinomeScan)
How it was run: as §1

EGFR = molecular target: T9, EGFR (Homo sapiens, UniProt P00533)
T9 construct: purchased DiscoveRx Corporation (KinomeScan)
How it was run: as §1

EIF2AK1 = molecular target: T10, EIF2AK1 (Homo sapiens, UniProt Q9BQI3)
T10 construct: purchased DiscoveRx Corporation (KinomeScan)
T10 sequence (Q9BQI3 whole entry): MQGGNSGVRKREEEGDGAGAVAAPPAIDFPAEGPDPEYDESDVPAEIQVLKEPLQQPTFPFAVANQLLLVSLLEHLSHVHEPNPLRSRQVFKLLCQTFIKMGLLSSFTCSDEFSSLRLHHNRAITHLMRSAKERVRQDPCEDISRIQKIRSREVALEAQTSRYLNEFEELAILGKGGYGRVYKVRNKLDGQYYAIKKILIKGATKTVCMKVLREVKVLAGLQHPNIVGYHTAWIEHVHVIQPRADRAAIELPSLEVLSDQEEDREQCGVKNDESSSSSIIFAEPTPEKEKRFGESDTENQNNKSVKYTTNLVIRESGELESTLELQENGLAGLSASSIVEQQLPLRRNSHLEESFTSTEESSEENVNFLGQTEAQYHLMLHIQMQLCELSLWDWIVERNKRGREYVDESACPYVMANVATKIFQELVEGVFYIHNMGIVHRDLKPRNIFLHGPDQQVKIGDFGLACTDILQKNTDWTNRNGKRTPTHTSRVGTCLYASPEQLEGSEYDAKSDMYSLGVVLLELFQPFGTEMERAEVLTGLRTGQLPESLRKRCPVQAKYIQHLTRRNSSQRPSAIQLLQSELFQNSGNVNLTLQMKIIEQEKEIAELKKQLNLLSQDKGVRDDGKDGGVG
How it was run: as §1

EPHA3 = molecular target: T11, EPHA3 (Homo sapiens, UniProt P29320)
T11 construct: purchased DiscoveRx Corporation (KinomeScan)
How it was run: as §1

ERBB3 = molecular target: T12, ERBB3 (Homo sapiens, UniProt P21860)
T12 construct: purchased DiscoveRx Corporation (KinomeScan)
How it was run: as §1

ERK4 = molecular target: T13, ERK4 (Homo sapiens, UniProt P31152)
T13 construct: purchased DiscoveRx Corporation (KinomeScan)
How it was run: as §1

ERN1 = molecular target: T14, ERN1 (Homo sapiens, UniProt O75460)
T14 construct: purchased DiscoveRx Corporation (KinomeScan)
How it was run: as §1

GRK4 = molecular target: T15, GRK4 (Homo sapiens, UniProt P32298)
T15 construct: purchased DiscoveRx Corporation (KinomeScan)
How it was run: as §1

GRK7 = molecular target: T16, GRK7 (Homo sapiens, UniProt Q8WTQ7)
T16 construct: purchased DiscoveRx Corporation (KinomeScan)
How it was run: as §1

GSK3B = molecular target: T17, GSK3B (Homo sapiens, UniProt P49841)
T17 construct: purchased DiscoveRx Corporation (KinomeScan)
T17 sequence (P49841 whole entry): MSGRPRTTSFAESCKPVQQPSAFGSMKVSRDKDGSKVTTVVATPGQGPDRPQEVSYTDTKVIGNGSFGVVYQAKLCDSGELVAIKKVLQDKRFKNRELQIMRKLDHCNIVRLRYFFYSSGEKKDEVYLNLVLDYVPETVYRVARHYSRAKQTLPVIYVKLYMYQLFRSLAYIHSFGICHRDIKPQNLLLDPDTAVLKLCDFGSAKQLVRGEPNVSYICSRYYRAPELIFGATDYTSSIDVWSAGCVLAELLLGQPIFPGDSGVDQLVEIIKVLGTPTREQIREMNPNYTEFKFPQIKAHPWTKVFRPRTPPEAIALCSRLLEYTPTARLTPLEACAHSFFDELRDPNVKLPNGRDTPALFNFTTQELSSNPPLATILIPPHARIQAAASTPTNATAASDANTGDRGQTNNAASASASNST
How it was run: as §1

INSR = molecular target: T18, INSR (Homo sapiens, UniProt P06213)
T18 construct: purchased DiscoveRx Corporation (KinomeScan)
How it was run: as §1

INSRR = molecular target: T19, INSRR (Homo sapiens, UniProt P14616)
T19 construct: purchased DiscoveRx Corporation (KinomeScan)
How it was run: as §1

JNK2 = molecular target: T20, JNK2 (Homo sapiens, UniProt P45984)
T20 construct: purchased DiscoveRx Corporation (KinomeScan)
How it was run: as §1

LATS2 = molecular target: T21, LATS2 (Homo sapiens, UniProt Q9NRM7)
T21 construct: purchased DiscoveRx Corporation (KinomeScan)
How it was run: as §1

MEK2 = molecular target: T22, MEK2 (Homo sapiens, UniProt P36507)
T22 construct: purchased DiscoveRx Corporation (KinomeScan)
T22 sequence (P36507 whole entry): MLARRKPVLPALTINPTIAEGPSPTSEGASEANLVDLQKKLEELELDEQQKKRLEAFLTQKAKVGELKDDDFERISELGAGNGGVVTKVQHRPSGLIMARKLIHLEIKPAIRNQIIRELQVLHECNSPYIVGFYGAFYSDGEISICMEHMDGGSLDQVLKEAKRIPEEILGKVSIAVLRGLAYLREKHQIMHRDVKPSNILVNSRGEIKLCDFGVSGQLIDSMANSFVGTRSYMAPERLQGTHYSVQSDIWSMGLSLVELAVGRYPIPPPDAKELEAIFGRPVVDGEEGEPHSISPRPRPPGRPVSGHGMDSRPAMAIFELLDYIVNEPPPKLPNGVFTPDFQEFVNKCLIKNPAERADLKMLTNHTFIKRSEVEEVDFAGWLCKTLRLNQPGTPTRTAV
How it was run: as §1

MYLK4 = molecular target: T23, MYLK4 (Homo sapiens, UniProt Q86YV6)
T23 construct: purchased DiscoveRx Corporation (KinomeScan)
How it was run: as §1

P38-alpha = molecular target: T24, P38-alpha (Homo sapiens, UniProt Q16539)
T24 construct: purchased DiscoveRx Corporation (KinomeScan panel)
How it was run: as §1

PIM1 = molecular target: T25, PIM1 (Homo sapiens, UniProt P11309)
T25 construct: purchased DiscoveRx Corporation (KinomeScan)
T25 sequence (P11309 whole entry): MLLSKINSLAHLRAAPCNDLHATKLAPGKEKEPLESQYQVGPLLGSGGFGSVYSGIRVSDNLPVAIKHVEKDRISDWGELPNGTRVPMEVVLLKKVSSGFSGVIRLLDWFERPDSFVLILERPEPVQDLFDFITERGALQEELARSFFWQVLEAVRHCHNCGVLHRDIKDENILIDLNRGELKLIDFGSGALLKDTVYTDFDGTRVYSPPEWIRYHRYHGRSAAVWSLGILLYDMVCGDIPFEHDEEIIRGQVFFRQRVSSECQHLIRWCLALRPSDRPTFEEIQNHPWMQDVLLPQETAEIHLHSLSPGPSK
How it was run: as §1

PRKCH = molecular target: T26, PRKCH (Homo sapiens, UniProt P24723)
T26 construct: purchased DiscoveRx Corporation (KinomeScan)
T26 sequence (P24723 whole entry): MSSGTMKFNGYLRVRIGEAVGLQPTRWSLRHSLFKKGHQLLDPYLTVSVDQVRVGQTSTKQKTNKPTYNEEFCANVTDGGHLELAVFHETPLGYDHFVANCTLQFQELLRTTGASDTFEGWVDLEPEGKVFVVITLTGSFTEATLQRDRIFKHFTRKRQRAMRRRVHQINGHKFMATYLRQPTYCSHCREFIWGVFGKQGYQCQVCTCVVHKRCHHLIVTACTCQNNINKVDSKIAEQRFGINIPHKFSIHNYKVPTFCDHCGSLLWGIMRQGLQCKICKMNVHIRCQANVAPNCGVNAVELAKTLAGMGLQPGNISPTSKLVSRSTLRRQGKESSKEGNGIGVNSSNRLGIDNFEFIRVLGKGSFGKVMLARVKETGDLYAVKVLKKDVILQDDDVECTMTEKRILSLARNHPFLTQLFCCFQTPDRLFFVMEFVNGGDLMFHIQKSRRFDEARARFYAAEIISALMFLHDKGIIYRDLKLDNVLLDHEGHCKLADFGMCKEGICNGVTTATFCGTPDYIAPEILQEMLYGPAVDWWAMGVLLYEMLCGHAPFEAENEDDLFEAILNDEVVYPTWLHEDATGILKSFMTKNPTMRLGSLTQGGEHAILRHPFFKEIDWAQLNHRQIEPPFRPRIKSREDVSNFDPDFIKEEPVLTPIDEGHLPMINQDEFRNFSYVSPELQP
How it was run: as §1

RET (M918T) = molecular target: T27, RET (M918T) (Homo sapiens, UniProt P07949, M918T)
T27 construct: purchased DiscoveRx Corporation
T27 sequence (P07949 29-1114 M918T): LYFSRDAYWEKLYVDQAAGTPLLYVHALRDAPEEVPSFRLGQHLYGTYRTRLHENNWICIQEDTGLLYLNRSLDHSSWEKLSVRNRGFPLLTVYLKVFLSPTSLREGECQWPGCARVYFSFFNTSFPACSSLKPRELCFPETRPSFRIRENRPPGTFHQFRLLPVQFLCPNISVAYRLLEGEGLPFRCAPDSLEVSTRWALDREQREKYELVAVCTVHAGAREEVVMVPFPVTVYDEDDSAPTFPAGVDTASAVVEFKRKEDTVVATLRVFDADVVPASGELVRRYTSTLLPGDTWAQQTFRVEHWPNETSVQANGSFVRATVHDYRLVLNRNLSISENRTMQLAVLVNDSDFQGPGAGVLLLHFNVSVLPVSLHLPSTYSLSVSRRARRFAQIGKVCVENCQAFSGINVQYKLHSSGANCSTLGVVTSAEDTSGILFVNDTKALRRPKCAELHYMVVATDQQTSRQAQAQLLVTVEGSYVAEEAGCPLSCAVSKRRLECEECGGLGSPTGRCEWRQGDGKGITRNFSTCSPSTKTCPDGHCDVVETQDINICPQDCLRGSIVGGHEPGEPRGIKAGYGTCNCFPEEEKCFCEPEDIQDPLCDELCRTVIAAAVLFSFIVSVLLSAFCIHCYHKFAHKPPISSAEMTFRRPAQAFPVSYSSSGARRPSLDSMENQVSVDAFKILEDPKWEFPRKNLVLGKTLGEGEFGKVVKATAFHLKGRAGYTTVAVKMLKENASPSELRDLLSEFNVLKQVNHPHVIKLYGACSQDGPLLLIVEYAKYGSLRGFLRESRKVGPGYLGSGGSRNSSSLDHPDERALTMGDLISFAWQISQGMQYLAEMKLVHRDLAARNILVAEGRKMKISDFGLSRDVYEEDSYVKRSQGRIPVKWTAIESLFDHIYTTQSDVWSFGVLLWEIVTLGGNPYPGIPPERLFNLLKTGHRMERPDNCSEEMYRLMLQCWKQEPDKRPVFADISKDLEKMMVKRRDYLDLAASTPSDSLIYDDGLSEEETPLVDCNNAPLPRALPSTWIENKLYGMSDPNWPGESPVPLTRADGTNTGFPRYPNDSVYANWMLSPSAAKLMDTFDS
How it was run: as §1

RET (V804L) = molecular target: T28, RET (V804L) (Homo sapiens, UniProt P07949, V804L)
T28 construct: purchased DiscoveRx Corporation
T28 sequence (P07949 29-1114 V804L): as the sequence (P07949 29-1114 M918T) above, with V776L, T890M counted along it
How it was run: as §1

RIPK4 = molecular target: T29, RIPK4 (Homo sapiens, UniProt P57078)
T29 construct: purchased DiscoveRx Corporation
How it was run: as §1

RIPK5 = molecular target: T30, RIPK5 (Homo sapiens, UniProt Q6XUX3)
T30 construct: purchased DiscoveRx Corporation
How it was run: as §1

SBK1 = molecular target: T31, SBK1 (Homo sapiens, UniProt Q52WX2)
T31 construct: purchased DiscoveRx Corporation (KinomeScan)
How it was run: as §1

SGK3 = molecular target: T32, SGK3 (Homo sapiens, UniProt Q96BR1)
T32 construct: purchased DiscoveRx Corporation (KinomeScan)
How it was run: as §1

TEC = molecular target: T33, TEC (Homo sapiens, UniProt P42680)
T33 construct: purchased DiscoveRx Corporation (KinomeScan)
T33 sequence (P42680 whole entry): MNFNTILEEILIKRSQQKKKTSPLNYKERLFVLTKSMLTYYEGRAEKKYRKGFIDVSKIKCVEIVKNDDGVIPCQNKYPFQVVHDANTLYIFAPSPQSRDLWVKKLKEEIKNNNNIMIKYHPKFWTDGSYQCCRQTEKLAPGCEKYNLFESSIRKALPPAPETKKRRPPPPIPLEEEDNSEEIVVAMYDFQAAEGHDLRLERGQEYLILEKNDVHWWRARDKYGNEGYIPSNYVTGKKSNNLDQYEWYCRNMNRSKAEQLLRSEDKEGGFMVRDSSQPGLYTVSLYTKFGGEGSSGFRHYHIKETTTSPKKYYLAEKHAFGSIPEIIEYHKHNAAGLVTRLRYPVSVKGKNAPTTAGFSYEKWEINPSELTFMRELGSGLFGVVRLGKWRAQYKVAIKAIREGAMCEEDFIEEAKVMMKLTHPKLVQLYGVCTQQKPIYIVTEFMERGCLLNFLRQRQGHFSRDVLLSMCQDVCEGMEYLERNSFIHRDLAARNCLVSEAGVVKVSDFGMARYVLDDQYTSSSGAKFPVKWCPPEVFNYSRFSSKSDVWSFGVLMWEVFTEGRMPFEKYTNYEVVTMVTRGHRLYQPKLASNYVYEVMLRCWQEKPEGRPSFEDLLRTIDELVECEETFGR
How it was run: as §1

TLK2 = molecular target: T34, TLK2 (Homo sapiens, UniProt Q86UE8)
T34 construct: purchased DiscoveRx Corporation (KinomeScan)
T34 sequence (Q86UE8 whole entry): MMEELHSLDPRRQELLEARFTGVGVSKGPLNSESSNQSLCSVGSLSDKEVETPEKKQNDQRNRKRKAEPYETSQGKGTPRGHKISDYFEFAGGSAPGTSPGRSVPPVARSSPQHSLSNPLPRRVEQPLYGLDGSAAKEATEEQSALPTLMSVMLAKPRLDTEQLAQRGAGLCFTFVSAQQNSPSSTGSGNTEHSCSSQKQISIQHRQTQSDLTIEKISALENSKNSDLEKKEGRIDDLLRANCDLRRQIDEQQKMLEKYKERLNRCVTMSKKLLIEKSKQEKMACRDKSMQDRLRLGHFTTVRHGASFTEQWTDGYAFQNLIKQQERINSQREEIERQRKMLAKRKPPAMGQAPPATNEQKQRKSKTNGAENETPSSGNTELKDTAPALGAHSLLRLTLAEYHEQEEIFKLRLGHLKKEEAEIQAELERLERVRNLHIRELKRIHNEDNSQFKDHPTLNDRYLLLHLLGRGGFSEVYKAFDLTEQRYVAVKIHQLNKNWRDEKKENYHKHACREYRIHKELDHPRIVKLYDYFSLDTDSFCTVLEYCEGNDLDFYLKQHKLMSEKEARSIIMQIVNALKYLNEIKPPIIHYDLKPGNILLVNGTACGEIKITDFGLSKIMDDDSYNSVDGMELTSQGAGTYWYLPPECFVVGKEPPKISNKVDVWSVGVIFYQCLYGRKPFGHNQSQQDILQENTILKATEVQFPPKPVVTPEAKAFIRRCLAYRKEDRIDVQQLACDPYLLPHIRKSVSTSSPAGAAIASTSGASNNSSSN
How it was run: as §1

TRKB = molecular target: T35, TRKB (Homo sapiens, UniProt Q16620)
T35 construct: purchased DiscoveRx Corporation (KinomeScan)
How it was run: as §1

ULK2 = molecular target: T36, ULK2 (Homo sapiens, UniProt Q8IYT8)
T36 construct: purchased DiscoveRx Corporation (KinomeScan service)
How it was run: as §1

CCOP(=O)(CN1CCC(COc2cc3nccc(Oc4ccc(NC(=O)C5(C(=O)Nc6ccc(F)cc6)CC5)cc4F)c3cc2OC)CC1)OCC [Example 10, N1-[4-[[7-[[1-(diethoxyphosphorylmethyl)-4-piperidinyl]methoxyl]-6-methoxyl-4-quinolyl]oxyl]-3-fluorophenyl]-N1′-(4-fluorophenyl)cyclopropane-1,1-dicarboxamide]
% Ctrl@1000 nM [1]: 63 % Ctrl | % Ctrl@1000 nM [2]: 32 % Ctrl | % Ctrl@1000 nM (ABL1-phosphorylated): 33 % Ctrl | % Ctrl@1000 nM (ASK1): 100 % Ctrl | % Ctrl@1000 nM (BRAF(V600E)): 100 % Ctrl | % Ctrl@1000 nM (CASK): 100 % Ctrl | % Ctrl@1000 nM (CSNK1G1): 100 % Ctrl | % Ctrl@1000 nM (DAPK2): 100 % Ctrl | % Ctrl@1000 nM (EGFR): 100 % Ctrl | % Ctrl@1000 nM (EIF2AK1): 100 % Ctrl | % Ctrl@1000 nM (EPHA3): 6 % Ctrl | % Ctrl@1000 nM (ERBB3): 98 % Ctrl | % Ctrl@1000 nM (ERK4): 100 % Ctrl | % Ctrl@1000 nM (ERN1): 81 % Ctrl | % Ctrl@1000 nM (GRK4): 78 % Ctrl | % Ctrl@1000 nM (GRK7): 100 % Ctrl | % Ctrl@1000 nM (GSK3B): 100 % Ctrl | % Ctrl@1000 nM (INSR): 54 % Ctrl | % Ctrl@1000 nM (INSRR): 65 % Ctrl | % Ctrl@1000 nM (JNK2): 93 % Ctrl | % Ctrl@1000 nM (LATS2): 96 % Ctrl | % Ctrl@1000 nM (MEK2): 33 % Ctrl | % Ctrl@1000 nM (MYLK4): 100 % Ctrl | % Ctrl@1000 nM (P38-alpha): 53 % Ctrl | % Ctrl@1000 nM (PIM1): 96 % Ctrl | % Ctrl@1000 nM (PRKCH): 100 % Ctrl | % Ctrl@1000 nM (RET (M918T)): 0.05 % Ctrl | % Ctrl@1000 nM (RET (V804L)): 0.35 % Ctrl | % Ctrl@1000 nM (RIPK4): 89 % Ctrl | % Ctrl@1000 nM (RIPK5): 82 % Ctrl | % Ctrl@1000 nM (SBK1): 100 % Ctrl | % Ctrl@1000 nM (SGK3): 75 % Ctrl | % Ctrl@1000 nM (TEC): 100 % Ctrl | % Ctrl@1000 nM (TLK2): 100 % Ctrl | % Ctrl@1000 nM (TRKB): 4 % Ctrl | % Ctrl@1000 nM (ULK2): 100 % Ctrl
